For this experiment, the target named is human RORgammaT-Ligand Binding Domain (LBD) (Homo sapiens (Human), UniProt P51449). Put plainly: RORγ-Ligand Binding Domain TR-FRET Assay (co-activator peptide SRC1_2 recruitment). The note with it: HIS-tagged RORγ-LBD 3 nM, biotinylated SRC1 LXXLL peptide 100 nM, incubated overnight at 4° C., 665 nm/615 nm ratio. The format is biochemical. An excerpt:
Activation of RORgammaT activity can be measured using, e.g., a biochemical TR-FRET assay. In such an assay, interaction of cofactor-derived peptides with human RORgammaT-Ligand Binding Domain (LBD) can be measured.
To identify novel antagonists of RORgammaT, an assay was developed which employs the interaction of RORgammaT with its co-activator peptide SRC1_2. […] The RORγ-Ligand Binding Domain TR-FRET Assay was run according to the following protocol.
HIS-tagged RORγ-LBD protein was recombinantly expressed in Escherichia coli. The RORγ-LBD protein was purified by Ni^2+-affinity resin. Purified protein was then diluted in assay buffer (50 mM Tris pH 7.0, 50 mM KCl, 1 mM EDTA, 0.1 mM DTT, 100 μg/mL bovine serum albumin, delipidated) to obtain a RORγ-LBD final concentration of 3 nM.
Compounds to be tested were injected to the 384-well assay plate using Acoustic Droplet Ejection technology by Echo 550 liquid handler (Labcyte, CA).
In general terms: Time-resolved FRET reads energy transfer from a long-lived donor to a nearby acceptor.

pIC50: −log10 of the molar value.

Chain of human RORgammaT-Ligand Binding Domain (LBD) (P51449 269-508): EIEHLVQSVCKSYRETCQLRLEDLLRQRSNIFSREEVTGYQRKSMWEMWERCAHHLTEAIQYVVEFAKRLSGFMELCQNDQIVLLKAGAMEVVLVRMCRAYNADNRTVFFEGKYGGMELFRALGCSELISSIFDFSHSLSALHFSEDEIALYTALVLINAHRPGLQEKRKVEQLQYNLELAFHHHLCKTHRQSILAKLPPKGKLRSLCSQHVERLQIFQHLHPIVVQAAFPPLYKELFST

The pIC50 is the negative decadic logarithm of the IC50, by convention in mol/L. Turning to `CC[C@H](C[C@H]1CN(S(=O)(=O)c2cccc(C3CC3)c2)c2cc(NC(=O)OC(C)(C)C(F)(F)F)ccc2O1)C(=O)O` (single isomer, unassigned) [Example 10D, (R or S)-2-(((S)-4-((3-cyclopropylphenyl)sulfonyl)-6-((((1,1,1-trifluoro-2-methylpropan-2-yl)oxy)carbonyl)amino)-3,4-dihydro-2H-benzo[b][1,4]oxazin-2-yl)methyl)butanoic acid], the pIC50 is 7.89. In the case of `CC[C@@H](C[C@H]1CN(S(=O)(=O)c2cccc(C3CC3)c2)c2cc(NC(=O)OC(C)(C)C(F)(F)F)ccc2O1)C(=O)O` (single isomer, unassigned) [Example 10F, (R or S)-2-(((S)-4-((3-cyclopropylphenyl)sulfonyl)-6-((((1,1,1-trifluoro-2-methylpropan-2-yl)oxy)carbonyl)amino)-3,4-dihydro-2H-benzo[b][1,4]oxazin-2-yl)methyl)butanoic acid] it was 7.88; in that of `CC[C@H](C[C@H]1CN(S(=O)(=O)c2cn(CC)nc2OCCO)c2cc(NC(=O)OC(C)(C)C(F)(F)F)ccc2O1)C(=O)O` (single isomer, unassigned) [Example 10L, (R or S)-2-(((S)-4-((1-ethyl-3-(2-hydroxyethoxy)-1H-pyrazol-4-yl)sulfonyl)-6-((((1,1,1-trifluoro-2-methylpropan-2-yl)oxy)carbonyl)amino)-3,4-dihydro-2H-benzo[b][1,4]oxazin-2-yl)methyl)butanoic acid], 7.31; in that of `CC[C@@H](C[C@H]1CN(S(=O)(=O)c2cn(CC)nc2OCCO)c2cc(NC(=O)OC(C)(C)C(F)(F)F)ccc2O1)C(=O)O` (single isomer, unassigned) [Example 10N, (R or S)-2-(((S)-4-((1-ethyl-3-(2-hydroxyethoxy)-1H-pyrazol-4-yl)sulfonyl)-6-((((1,1,1-trifluoro-2-methylpropan-2-yl)oxy)carbonyl)amino)-3,4-dihydro-2H-benzo[b][1,4]oxazin-2-yl)methyl)butanoic acid], 7.17. With `Cc1cc(S(=O)(=O)N2C[C@H](C[C@@H](C(=O)O)C3CC3)Oc3ccc(NC(=O)OC(C)(C)C(F)(F)F)cc32)ccc1F` (single isomer, unassigned) [Example 10T, (R or S)-2-cyclopropyl-3-((S)-4-((4-fluoro-3-methylphenyl)sulfonyl)-6-((((1,1,1-trifluoro-2-methylpropan-2-yl)oxy)carbonyl)amino)-3,4-dihydro-2H-benzo[b][1,4]oxazin-2-yl)propanoic acid] the figure was 7.79; with `Cc1cc(S(=O)(=O)N2C[C@H](C[C@H](C(=O)O)C3CC3)Oc3ccc(NC(=O)OC(C)(C)C(F)(F)F)cc32)ccc1F` (single isomer, unassigned) [Example 10X, (R or S)-2-cyclopropyl-3-((S)-4-((4-fluoro-3-methylphenyl)sulfonyl)-6-((((1,1,1-trifluoro-2-methylpropan-2-yl)oxy)carbonyl)amino)-3,4-dihydro-2H-benzo[b][1,4]oxazin-2-yl)propanoic acid], 7.48. Regarding `COc1cc(S(=O)(=O)N2C[C@H](C[C@@](C)(O)C(=O)O)Oc3ccc(NC(=O)OC(C)(C)C(F)(F)F)cc32)ccc1F` (single isomer, unassigned) [Example 18A, (R or S)-3-((S)-4-((4-fluoro-3-methoxyphenyl)sulfonyl)-6-((((1,1,1-trifluoro-2-methylpropan-2-yl)oxy)carbonyl)amino)-3,4-dihydro-2H-benzo[b][1,4]oxazin-2-yl)-2-hydroxy-2-methylpropanoic acid], the pIC50 was 7.89. With `COc1cc(S(=O)(=O)N2C[C@H](C[C@](C)(O)C(=O)O)Oc3ccc(NC(=O)OC(C)(C)C(F)(F)F)cc32)ccc1F` (single isomer, unassigned) [Example 18C, (R or S)-3-((S)-4-((4-fluoro-3-methoxyphenyl)sulfonyl)-6-((((1,1,1-trifluoro-2-methylpropan-2-yl)oxy)carbonyl)amino)-3,4-dihydro-2H-benzo[b][1,4]oxazin-2-yl)-2-hydroxy-2-methylpropanoic acid] the figure was 7.60; with `COc1cc(S(=O)(=O)N2C[C@H](CC(C)(CO)C(=O)O)Oc3ccc(NC(=O)OC(C)(C)C(F)(F)F)cc32)ccc1F` (single isomer, unassigned) [Example 18J, (S or R)-3-((S)-4-((4-fluoro-3-methoxyphenyl)sulfonyl)-6-((((1,1,1-trifluoro-2-methylpropan-2-yl)oxy)carbonyl)amino)-3,4-dihydro-2H-benzo[b][1,4]oxazin-2-yl)-2-(hydroxymethyl)-2-methylpropanoic acid], 8.04. With `COc1cc(S(=O)(=O)N2C[C@H](CC(C)(CO)C(=O)O)Oc3ccc(NC(=O)OC(C)(C)C(F)(F)F)cc32)ccc1F` (single isomer, unassigned) [Example 18L, (S or R)-3-((S)-4-((4-fluoro-3-methoxyphenyl)sulfonyl)-6-((((1,1,1-trifluoro-2-methylpropan-2-yl)oxy)carbonyl)amino)-3,4-dihydro-2H-benzo[b][1,4]oxazin-2-yl)-2-(hydroxymethyl)-2-methylpropanoic acid] the figure was 7.98; with `CC(C)(OC(=O)Nc1ccc2c(c1)N(S(=O)(=O)c1ccc(F)c(C(F)(F)F)c1)C[C@H]([C@@H](CC(=O)O)C1CC1)O2)C(F)(F)F` (single isomer, unassigned) [Example 21A, (S or R)-3-cyclopropyl-3-((S)-4-((4-fluoro-3-(trifluoromethyl)phenyl)sulfonyl)-6-((((1,1,1-trifluoro-2-methylpropan-2-yl)oxy)carbonyl)amino)-3,4-dihydro-2H-benzo[b][1,4]oxazin-2-yl)propanoic acid], 7.55; with `CC(C)(OC(=O)Nc1ccc2c(c1)N(S(=O)(=O)c1ccc(F)c(C(F)(F)F)c1)C[C@H]([C@H](CC(=O)O)C1CC1)O2)C(F)(F)F` (single isomer, unassigned) [Example 21C, (S or R)-3-cyclopropyl-3-((S)-4-((4-fluoro-3-(trifluoromethyl)phenyl)sulfonyl)-6-((((1,1,1-trifluoro-2-methylpropan-2-yl)oxy)carbonyl)amino)-3,4-dihydro-2H-benzo[b][1,4]oxazin-2-yl)propanoic acid], 7.52. Turning to `Cc1ccc(S(=O)(=O)N2C[C@H]([C@H]3C[C@H]3C(=O)O)Oc3ccc(NC(=O)OC(C)(C)C(F)(F)F)cc32)cc1` (single isomer, unassigned) [Example 22E, (1S,2S or 1R,2R or 1S,2R or 1R,2S)-2-((S)-4-tosyl-6-((((1,1,1-trifluoro-2-methylpropan-2-yl)oxy)carbonyl)amino)-3,4-dihydro-2H-benzo[b][1,4]oxazin-2-yl)cyclopropanecarboxylic acid], the pIC50 was 7.33.

For `Cc1ccc(S(=O)(=O)N2C[C@H]([C@@H]3C[C@@H]3C(=O)O)Oc3ccc(NC(=O)OC(C)(C)C(F)(F)F)cc32)cc1` (single isomer, unassigned) [Example 22F, (1S,2S or 1R,2R or 1S,2R or 1R,2S)-2-((S)-4-tosyl-6-((((1,1,1-trifluoro-2-methylpropan-2-yl)oxy)carbonyl)amino)-3,4-dihydro-2H-benzo[b][1,4]oxazin-2-yl)cylcopropanecarboxylic acid], the pIC50 was 7.12. As to `Cc1ccc(S(=O)(=O)N2C[C@H]([C@H]3C[C@@H]3C(=O)O)Oc3ccc(NC(=O)OC(C)(C)C(F)(F)F)cc32)cc1` (single isomer, unassigned) [Example 22G, (1S,2S or 1R,2R or 1S,2R or 1R,2S)-2-((S)-4-tosyl-6-((((1,1,1-trifluoro-2-methylpropan-2-yl)oxy)carbonyl)amino)-3,4-dihydro-2H-benzo[b][1,4]oxazin-2-yl)cyclopropanecarboxylic acid], the pIC50 was 7.47. With `Cc1ccc(S(=O)(=O)N2C[C@H]([C@@H]3C[C@H]3C(=O)O)Oc3ccc(NC(=O)OC(C)(C)C(F)(F)F)cc32)cc1` (single isomer, unassigned) [Example 22H, (1S,2S or 1R,2R or 1S,2R or 1R,2S)-2-((S)-4-tosyl-6-((((1,1,1-trifluoro-2-methylpropan-2-yl)oxy)carbonyl)amino)-3,4-dihydro-2H-benzo[b][1,4]oxazin-2-yl)cyclopropanecarboxylic acid] the figure was 6.85; with `COc1cc(S(=O)(=O)N2C[C@H]([C@@H]3C[C@H]3C(=O)O)Oc3ccc(NC(=O)OC(C)(C)C(F)(F)F)cc32)ccc1F` (single isomer, unassigned) [Example 22J, (1R,2S or 1R,2R or 1S,2S or 1S,2R)-2-((S)-4-((4-fluoro-3-methoxyphenyl)sulfonyl)-6-((((1,1,1-trifluoro-2-methylpropan-2-yl)oxy)carbonyl)amino)-3,4-dihydro-2H-benzo[b][1,4]oxazin-2-yl)cyclopropanecarboxylic acid], 7.87; with `COc1cc(S(=O)(=O)N2C[C@H]([C@H]3C[C@H]3C(=O)O)Oc3ccc(NC(=O)OC(C)(C)C(F)(F)F)cc32)ccc1F` (single isomer, unassigned) [Example 22M, (1R,2S or 1R,2R or 1S,2S or 1S,2R)-2-((S)-4-((4-fluoro-3-methoxyphenyl)sulfonyl)-6-((((1,1,1-trifluoro-2-methylpropan-2-yl)oxy)carbonyl)amino)-3,4-dihydro-2H-benzo[b][1,4]oxazin-2-yl)cyclopropanecarboxylic acid], 8.06.

The record behind these values is patent US9783511B2, “Carbamate benzoxazine propionic acids and acid derivatives for modulation of RORgamma activity and the treatment of disease” (Merck Sharp & Dohme Corp., priority 2013, dated 2017).
